Values of other authors as cited in patent US20250049818A1, “PRENATAL SUPPLEMENT COMPOSITIONS FOR INCREASING BREASTMILK MICRONUTRIENT LEVELS” (SOCIÉTÉ DES PRODUITS NESTLÉ S.A., priority 2021, published 2025).
Like-named read-outs stand apart in the source and are kept apart here.

Legend:
[1] = children of developing world, meta-analysis
[2] = 5 mg/day, Indian infants small for gestational age
[3] = 10 mg/day for 120 days, Indian infants aged 6-35 months
[4] = daily supplementation during pregnancy only, zinc 30 mg

| SMILES | mean vitamin D activity (VDA) of human milk (two months post-partum, 1,000 IU group) [IU/L] | mean vitamin D activity (VDA) of human milk (two months post-partum, 2,000 IU group) [IU/L] | mean vitamin D activity (VDA) of human milk (two weeks post-partum, 1,000 IU daily oral, 27-36 weeks of gestation) [IU/L] | mean vitamin D activity (VDA) of human milk (two weeks post-partum, 2,000 IU daily oral, 27-36 weeks of gestation) [IU/L] | reduced diarrhoea [1] [%] | reduction in mortality [2] [%] | reduction in incidence of acute lower respiratory infections [3] [%] | human milk zinc concentration ([4]; 1 month postpartum) | human milk zinc concentration ([4]; 6 months postpartum) |
| --- | --- | --- | --- | --- | --- | --- | --- | --- | --- |
| C=C1CC[C@H](O)C/C1=C/C=C1\CCC[C@]2(C)[C@@H]([C@H](C)CCCC(C)C)CC[C@@H]12 [vitamin D3, cholecalciferol] | 43 | 58 | 51 | 74 |  |  |  |  |  |
| [Zn] [zinc] |  |  |  |  | 18 | 68 | 45 | 49.3 (31.3-62.1) μmol/L | 15.3 (11.8-27.2) μmol/L |
